Consider seven compounds from PubChem BioAssay (NCI).

SMILES strings stand for the structures.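 Where inhibition never reached the appropriate level, the endpoint shown equals the highest concentration tested. Otherwise, values were interpolated linearly from a five-concentration, 48-hour dose response in 96-well plates. Abbreviation: GI50, concentration required for 50% inhibition of growth. TGI marks complete inhibition of growth.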 Where only a bound is given, the exact number is not on record here.

Among the test systems are CAKI-1 renal; IGROV1 ovarian; K-562 leukemia; MCF7 breast; NCI-H226 lung; RXF 393 renal; SF-268 CNS; SK-MEL-2 melanoma; SNB-19 CNS; UACC-257 melanoma.
Holding throughout (test): DTP human tumour cell line panel, 48 h

A word on the GI50: it is the concentration at which growth is held to half of that of the control. The TGI is the concentration giving total growth inhibition. The low end stands for more potent growth arrest, the high end for less potent growth arrest. With `O=C(/C=C\Sc1nccc(C(F)(F)F)n1)c1ccc(Br)cc1`, the GI50 in the test on CAKI-1 renal is 18 µM; in the test on IGROV1 ovarian, 16.8 µM; in the test on K-562 leukemia it was 15 µM; in the test on MCF7 breast, 28 µM; in the test with NCI-H226 lung, 26.9 µM; with RXF 393 renal it was 18.5 µM. Besides, the GI50 with SF-268 CNS is 33.2 µM; with SK-MEL-2 melanoma it was more than 100 µM; in the test on SNB-19 CNS it was 36.9 µM; in the test on UACC-257 melanoma, 56.4 µM. For the same compound, the TGI in the test on CAKI-1 renal is 35.1 µM; in the test on IGROV1 ovarian it was 35.8 µM; in the test on K-562 leukemia it was 44.1 µM; with MCF7 breast, 84.8 µM; in the test on NCI-H226 lung it was 87.8 µM; in the test with RXF 393 renal, 40.9 µM. In addition, the TGI with SF-268 CNS, in the test on SK-MEL-2 melanoma, in the test with SNB-19 CNS and with UACC-257 melanoma was more than 100 µM throughout.
For `Cc1ccc(NC(=O)c2ccnc(N3CCCC3)c2)cc1-c1ccc(C(=O)NCC2CC2)cc1`, the GI50 in the test on CAKI-1 renal, in the test with IGROV1 ovarian, in the test with K-562 leukemia, with MCF7 breast, in the test on NCI-H226 lung and in the test with SF-268 CNS was more than 25 µM each time. For the same compound, the GI50 in the test with SK-MEL-2 melanoma, in the test on SNB-19 CNS and in the test with UACC-257 melanoma was more than 25 µM throughout. Besides, the TGI in the test on CAKI-1 renal, with IGROV1 ovarian, with K-562 leukemia, with MCF7 breast, in the test with NCI-H226 lung and in the test on RXF 393 renal was more than 25 µM in each case. In addition, the TGI with SF-268 CNS, with SK-MEL-2 melanoma, with SNB-19 CNS and with UACC-257 melanoma was more than 25 µM in each case.
Turning to `O=C1/C(=C/c2ccc(Cl)cc2)CN(C(=O)C(Cl)Cl)C/C1=C\c1ccc(Cl)cc1`, the GI50 is 0.264 µM in the test with CAKI-1 renal; 0.178 µM in the test with IGROV1 ovarian; 0.0469 µM in the test on K-562 leukemia; 0.0441 µM in the test on MCF7 breast; 0.211 µM in the test with NCI-H226 lung; 0.18 µM in the test with RXF 393 renal. Also, the concentration for 50% growth inhibition (GI50) with SF-268 CNS is 0.315 µM; in the test on SK-MEL-2 melanoma, 1.18 µM; with SNB-19 CNS, 0.177 µM; in the test with UACC-257 melanoma, 0.465 µM. Moreover, the TGI in the test with CAKI-1 renal is 0.865 µM; with IGROV1 ovarian, 0.422 µM; in the test with K-562 leukemia it was more than 68.9 µM; with MCF7 breast, 0.56 µM; with NCI-H226 lung, 0.454 µM; with RXF 393 renal, 0.378 µM. For the same compound, the TGI in the test with SF-268 CNS is 1.48 µM; with SK-MEL-2 melanoma it was 3.07 µM; in the test with SNB-19 CNS it was 0.576 µM; in the test on UACC-257 melanoma it was 1.55 µM.
On to `COc1ccc2c(c1)Cc1c-2c(NN)nc2ccccc12`, for which the GI50 in the test on CAKI-1 renal was 39.8 µM; with IGROV1 ovarian it was 24.6 µM; in the test with K-562 leukemia it was 6.65 µM; in the test with MCF7 breast, 5.66 µM; in the test with NCI-H226 lung it was 64 µM; with RXF 393 renal, 30.5 µM. Besides, the GI50 in the test on SF-268 CNS is 25.3 µM; with SK-MEL-2 melanoma it was 33.1 µM; in the test on SNB-19 CNS, 31.3 µM; in the test with UACC-257 melanoma it was 53.7 µM. In addition, the TGI with CAKI-1 renal was more than 100 µM; in the test on IGROV1 ovarian, more than 100 µM; in the test on K-562 leukemia it was 85.1 µM; in the test on MCF7 breast, 48.5 µM; in the test with NCI-H226 lung it was more than 100 µM; in the test on RXF 393 renal, more than 100 µM. The TGI in the test with SF-268 CNS, with SK-MEL-2 melanoma, in the test with SNB-19 CNS and with UACC-257 melanoma was more than 100 µM each time.
For the compound `Cn1cc(C2=C(c3c4n(c5ccccc35)CCC(CN)CC4)C(=O)NC2=O)c2ccccc21` (centres undefined), the GI50 in the test with CAKI-1 renal is 4.75 µM; in the test with IGROV1 ovarian it was 3.98 µM; in the test on K-562 leukemia, 4.72 µM; in the test with MCF7 breast, 3.48 µM; in the test with NCI-H226 lung it was 5.01 µM; in the test with RXF 393 renal, 3.65 µM. Besides, the GI50 in the test with SF-268 CNS was 4.02 µM; with SK-MEL-2 melanoma, 4.02 µM; in the test on SNB-19 CNS, 4.52 µM; in the test with UACC-257 melanoma, 3.89 µM. Further, the TGI with CAKI-1 renal came out at 10.7 µM; with IGROV1 ovarian it was 8.75 µM; in the test with K-562 leukemia it was 11.9 µM; with MCF7 breast, 7.41 µM; with NCI-H226 lung it was 16.2 µM; in the test with RXF 393 renal it was 7.1 µM. The TGI in the test with SF-268 CNS was 7.7 µM; with SK-MEL-2 melanoma, 8.25 µM; in the test on SNB-19 CNS, 10.7 µM; in the test on UACC-257 melanoma, 7.57 µM.
Take `Cc1cccc(N=C2c3cc([N+](=O)[O-])ccc3-c3c2cc([N+](=O)[O-])cc3[N+](=O)[O-])c1`: the GI50 with CAKI-1 renal was 15.5 µM; in the test with IGROV1 ovarian, 5.89 µM; in the test with K-562 leukemia it was 2.9 µM; in the test with MCF7 breast, 6.27 µM; in the test on NCI-H226 lung, 5.08 µM; in the test on RXF 393 renal, 2.28 µM. In addition, the GI50 in the test with SF-268 CNS is 6.33 µM; in the test on SK-MEL-2 melanoma, 7.39 µM; in the test with SNB-19 CNS it was 14.3 µM; with UACC-257 melanoma, 6.81 µM. Also, the TGI with CAKI-1 renal is 77.9 µM; with IGROV1 ovarian, more than 100 µM; with K-562 leukemia, 10.5 µM; in the test on MCF7 breast it was 28.2 µM; in the test on NCI-H226 lung, 22.2 µM; with RXF 393 renal it was 4.95 µM. The TGI in the test with SF-268 CNS was 40.8 µM; in the test with SK-MEL-2 melanoma it was 32.1 µM; in the test with SNB-19 CNS, 31.7 µM; in the test on UACC-257 melanoma, 34.5 µM.
Take `CN(C)CC1CCn2c(c(C3=C(c4cn(C)c5ccccc45)C(=O)NC3=O)c3ccccc32)C1` (centres undefined): the GI50 with CAKI-1 renal was 3.44 µM; in the test on IGROV1 ovarian, 5.22 µM; with K-562 leukemia it was 4.97 µM; with MCF7 breast, 4.31 µM; in the test with NCI-H226 lung, 4.01 µM; in the test on RXF 393 renal, 3.3 µM. Besides, the GI50 in the test with SF-268 CNS was 3.84 µM; in the test on SK-MEL-2 melanoma, 3.96 µM; in the test on SNB-19 CNS it was 4.84 µM; in the test with UACC-257 melanoma, 3.93 µM. For the same compound, the TGI with CAKI-1 renal was 7.66 µM; in the test on IGROV1 ovarian it was 10.1 µM; in the test on K-562 leukemia, 10.5 µM; in the test with MCF7 breast, 8.03 µM; in the test on NCI-H226 lung it was 9.38 µM; with RXF 393 renal, 6.71 µM. For the same compound, the TGI was determined as 7.97 µM in the test with SF-268 CNS, 7.82 µM with SK-MEL-2 melanoma, 10.4 µM in the test with SNB-19 CNS and 7.52 µM in the test with UACC-257 melanoma.
